How the values were obtained:
eck receptor = assay: Chemical crosslinking of 125I-EBP to CHO 19.32 cells; format: binding, human; conditions: untransfected cells (CHOd-)
Experimental: CHO-cell derived EBP was radiolabelled with ^125 I as described below for use in crosslinking and binding studies. Five or 10 μg of EBP in 0.1M sodium phosphate (NAPO4, pH 8.0) was added to 5 mCi of dried ^125 I-Bolton-Hunter reagent (NEN, Boston, Mass.) in a final volume of 50 μl or 100 μl, and the tube was incubated at 4° C. for 1 h. The reaction was terminated by addition of 0.3 ml of 0.2M glycine in 0.1M NaPO4, followed by incubation at 4° C. for 5 min. Labeled protein was separated from unincorporated reagent by gel filtration chromatography on a 10 ml PD10 column containing Sephadex G-25M (Pharmacia) equilibrated with 0.1M NaPO4 --0.25% gelatin. Specific activity of the ^125 I-EBP ranged from 4 to 19 cpm/pg.
Crosslinking of EBP to either LIM 2405 (a cell line naturally expressing the eck receptor) or CHO 19.32 (Chinese hamster ovary cells transfected with a clone of the full length eck receptor) was carried out as follows. CHO cells were grown in suspension to a density of approximately 5×10^5 cells/ml in media. LIM2405 cells were grown in RPMI 1640 media containing 5% FCS, 1 μg/ml insulin, 1 μg/ml hydrocortisone, 10 μM thioglycerol and 2 mM L-glutamine to approximately 90% confluency in T-175 flasks and removed by scraping for use in the crosslinking studies. Cells were spun down and resuspended in PBS to give a single cell suspension. For each crosslinking reaction, 2×10^6 cells were mixed with approximately 20 ng of ^125 I-EBP in a total volume of 1 ml. This mixture was incubated at 4° C. for 1 h to allow binding of EBP to cell surface receptors before the addition of 20 μl of 10 mM disuccinimidyl suberate (DSS) as a crosslinking agent. Cells were then washed three times in binding buffer, collected by centrifugation, and the amount of radioactivity incorporated into the cell pellets was counted to assess the degree of crosslinking. The cells were then lysed by treatment with 100 ul PBS, 1 mM EDTA, 0.5% NP-40, 1 mM phenylmethylsulfonyl fluoride (PMSF, Sigma, St. Louis, Mo.) for 10 min at 4° C. […]

[1] = test system: granulation tissue in subcutaneously implanted wound chambers; assay: Rat wound chamber assay (granulation tissue formation); format: in vivo; conditions: for DNA / HYDROXY-PROLINE / TOTAL GYLCOSAMINO-GLYCANS / TOTAL PROTEIN / WET WEIGHT: harvest day 12, mean ± SEM; for increase in hydroxyproline: not statistically significant
Experimental: Male Sprague-Dawley specific pathogen free rats (300-350 g; Charles River Breeding Laboratories, Inc.) were used for this study. Rats were anesthetized with sodium pentobarbital (50 mg/kg body weight) by intraperitoneal injection. Using aseptic surgical technique, a 3 cm midline incision was made on the dorsal surface of the rat. A single pocket was formed under the panniculus carnosis by blunt dissection on one side of the animal. A 3 cm long×1 cm diameter sterile stainless steel wire mesh cylinder was then inserted subcutaneously. The wound chambers used were similar to those described by Schilling et. al. (Surgery 46, 702-710 (1959)) and utilized by Hunt et. al. (Am. J. Surg. 114, 302-307 (1967)) as wound healing models. The incision was closed with wound clips. The rats survived the operation well with no evidence of postoperative discomfort. Beginning 3 days after wound chamber implantation, the rats were randomly divided into 5 groups. At this time daily injections of 1) 10 μg CHO-derived EBP, 2) 1 μg CHO-derived EBP, 3) 8 μg E. coli derived EBP, 4) 5 μg recombinant platelet derived growth factor (PDGF), or 5) 0.1 ml sterile PBS and 1 mM CHAPS were begun and continued for a total of 9 days. The injections were made directly into the wound chamber through a silicone septum at the outer edge of the chamber. Twelve days after chamber implantation, the rats were sacrificed by CO2 asphyxiation. Immediately after sacrifice, the chambers were removed surgically and carefully opened. The enclosed granulation tissue was then weighed, and stored at -70° C. for future processing.
Granulation tissue samples were thawed and homogenized with a Polytron homogenizer in 2 ml of ice-cold distilled water for approximately 1 minute. Next, 2 ml of ice-cold 10% trichloroacetic acid was added to the homogenate and incubated at 4° C. for 1 hour. The TCA-precipitated samples were centrifuged (500 g, 10 minutes) at 4° C., washed once with 2 ml of ice-cold 5% TCA, and finally washed with 2 ml of ice-cold 95% ethanol containing 50 mM sodium acetate. Samples were defatted twice with 2 ml of ethanol:ether (3:1, v/v) at 20° C. After each defatting procedure, samples were centrifuged (500×g, 10 minutes) and the supernate discarded. The pellet was then dissolved in 1N sodium hydroxide and brought up to a volume of 10 ml.
Total protein was determined by taking an aliquot of the solubilized granulation tissue and assaying the sample according to the method of Bradford (Anal. Biochem. 72, 248-251 (1976)) Bovine serum albumin (Sigma Chemical Co., St. Louis, Mo.) was used for a protein standard curve.
Total DNA content was determined as deoxy-ribose by the colorimetric method of Burton (Biochem. J. 62, 315 (1956)). Briefly, a 1 ml aliquot of the solubilized sample (in 1N NaOH) was neutralized with the addition of 0.5 ml of 2N HCl. A 1 ml aliquot of the neutralized solution was extracted in 10% perchloric acid at 90° C. for 15 minutes. A 1 ml portion of the final extract was added to 2 ml activated diphenylamine (Sigma Chemical, St. Louis, Mo.) reagent and absorbance at 600 nm was measured after overnight incubation at room temperature. Hydrolyzed calf thymus DNA (Sigma) was used to construct the standard curve. The DNA content was measured as a rough index of the number of cells in the wound chamber, with the realization that cell type and cell cycle status also influence DNA content.
Total glycosaminoglycans (GAGs) were determined using chondroitin sulfate as a standard. A spectrophotometric assay for GAGs was run utilizing a change in absorption spectrum of the dye 1,9- dimethyl methylene blue (Farndale et al. Conn. Tiss. Res. 9, 247-248 (1982)).
Total collagen content was determined as hydroxyproline (an index of collagen content) after hydrolysis of the solubilized granulation tissue in 6N HCl at 110° C. for 24 hours. […]

[2] = 1 μg per chamber per day x 9 days
[3] = 1 μg per chamber per day x 9 days, listed as CHO-derived rEBP
[4] = 10 μg per chamber per day x 9 days
[5] = 10 μg per chamber per day x 9 days, listed as CHO-derived rEBP

CHO-EBP: recombinant EBP purified from supernatants of CHO cells transfected with the EBP gene; mainly EBP^1-150 and EBP^1-159
crosslinking to untransfected CHO cells (eck receptor): but not to the untransfected cells
DNA [1, 2]: 232 ± 41 µg
HYDROXY-PROLINE [1, 2]: 318.7 ± 31.7 µg
TOTAL GYLCOSAMINO-GLYCANS [1, 2]: 589.2 ± 68.4 µg
TOTAL PROTEIN [1, 2]: 3.88 ± 0.44 mg
WET WEIGHT [1, 2]: 238.0 ± 24.1 mg
DNA [1, 3]: no significant differences
HYDROXY-PROLINE [1, 3]: no significant differences
TOTAL GYLCOSAMINO-GLYCANS [1, 3]: significant increase
TOTAL PROTEIN [1, 3]: no significant differences
WET WEIGHT [1, 3]: significant increase
increase in hydroxyproline ([1]; 1 μg/chamber/day): 21%
DNA [1, 4]: 650 ± 163 µg
HYDROXY-PROLINE [1, 4]: 354.5 ± 63.7 µg
TOTAL GYLCOSAMINO-GLYCANS [1, 4]: 627.9 ± 92.4 µg
TOTAL PROTEIN [1, 4]: 7.15 ± 1.23 mg
WET WEIGHT [1, 4]: 398.2 ± 70.9 mg
DNA [1, 5]: significantly increased
TOTAL GYLCOSAMINO-GLYCANS [1, 5]: significantly increased
TOTAL PROTEIN [1, 5]: significantly increased
WET WEIGHT [1, 5]: significantly increased
increase in hydroxyproline ([1]; 10 μg/chamber/day): 35%

Reference: patent US5716934A, “Eck receptor ligands” (Amgen Inc., priority 1995, dated 1998)
